Reference: paper PMC4274170 (Toxicology letters, 2014)
Where two headings read alike, the source gives them in different places.

How the values were obtained:
In vitro metabolism [1] = conditions: female human
In vitro metabolism [2] = experiment: In vitro metabolism
In vitro metabolism [3] = experiment: In vitro metabolism; remark: listed apart in the source
In vitro metabolism [4] = type: in vitro ADME, mouse
humans = conditions: ref WHO, 2010, 2012; cited from earlier work
in vitro [5] = conditions: male, Sprague-Dawley, rat, pH 7.4
[6] = mouse, microsomes
[7] = human
[8] = rat, microsomes
in vitro [9] = conditions: female, human, pH 7.4, Km
in vitro [10] = conditions: female, B6129SF1/J, mouse, pH 7.4
[11] = pregnant relative to naïve female mice

SMILES: c1ccc2c(c1)cc1ccc3cccc4c5ccccc5c2c1c34 [DBC, dibenzo[def,p]chrysene]
- Tissue level CLINT, MM (In vitro metabolism [1]; Michaelis-Menten method (Vmax/Km scaled)): 0.32 ± 0.46 ml/min/g tissue
- Organism level CLINT, MM (In vitro metabolism [1]; Michaelis-Menten method, liver weight 25.7 g per kg body weight): 8.19 ± 11.73 ml/min/kg body weight
- Tissue level CLINT, t 1/2 (In vitro metabolism [1]; in vitro half-life method): 0.16 ml/min/g tissue
- Organism level CLINT, t 1/2 (In vitro metabolism [1]; in vitro half-life method, liver weight 25.7 g per kg body weight): 4.23 ml/min/kg body weight
- Vmax (In vitro metabolism [2]; male rat liver microsomes, Michaelis-Menten regression of substrate depletion): 0.167 ± 0.064 nmol/min/mg MSP
- Tissue level CLINT, MM (In vitro metabolism [2]; male rat, Michaelis-Menten method (Vmax/Km scaled)): 0.69 ± 0.73 ml/min/g tissue
- Organism level CLINT, MM (In vitro metabolism [2]; male rat, Michaelis-Menten method, liver weight 36.6 g per kg body weight): 25.14 ± 26.85 ml/min/kg body weight
- Tissue level CLINT, t 1/2 (In vitro metabolism [2]; male rat, in vitro half-life method): 1.01 ± 0.30 ml/min/g tissue
- Organism level CLINT, t 1/2 (In vitro metabolism [2]; male rat, in vitro half-life method, liver weight 36.6 g per kg body weight): 37.05 ± 10.96 ml/min/kg body weight
- Km (In vitro metabolism [2]; male, Sprague-Dawley, rat, pH 7.4): 7.28 ± 4.99 µM
- Km (In vitro metabolism [3]; female, B6129SF1/J, mouse, pH 7.4): 6.63 ± 1.01 µM
- Vmax (In vitro metabolism [3]; naïve mouse liver microsomes, Michaelis-Menten regression of substrate depletion): 0.646 ± 0.055 nmol/min/mg MSP
- Tissue level CLINT, MM (In vitro metabolism [3]; naïve mouse, Michaelis-Menten method (Vmax/Km scaled)): 2.92 ± 0.71 ml/min/g tissue
- Organism level CLINT, MM (In vitro metabolism [3]; naïve mouse, Michaelis-Menten method, liver weight 55 g per kg body weight): 160.71 ± 38.94 ml/min/kg body weight
- Tissue level CLINT, t 1/2 (In vitro metabolism [3]; naïve mouse, in vitro half-life method): 4.59 ± 0.53 ml/min/g tissue
- Organism level CLINT, t 1/2 (In vitro metabolism [3]; naïve mouse, in vitro half-life method, liver weight 55 g per kg body weight): 252.18 ± 29.26 ml/min/kg body weight
- Km (In vitro metabolism [4]; female, B6129SF1/J, mouse, liver microsomes of pregnant (GD17) mice, pH 7.4): 3.28 ± 1.38 µM
- Tissue level CLINT, MM (In vitro metabolism [4]; pregnant mouse, Michaelis-Menten method (Vmax/Km scaled)): 3.81 ± 2.28 ml/min/g tissue
- Organism level CLINT, MM (In vitro metabolism [4]; pregnant mouse, Michaelis-Menten method, liver weight 41.8 g per kg body weight): 159.43 ± 95.51 ml/min/kg body weight
- Tissue level CLINT, t 1/2 (In vitro metabolism [4]; pregnant mouse, in vitro half-life method): 3.31 ± 1.75 ml/min/g tissue
- KM reduced in the pregnant animal (In vitro metabolism [4]; [11]): 51%
- VMAX reduced in the pregnant animal (In vitro metabolism [4]; [11]): 35%
- higher tissue level CLINT in the pregnant animal (Michaelis-Menten regression method) (In vitro metabolism [4]; [11]): 30%
- tissue level CLINT lower in the pregnant animal (in vitro half-life method) (In vitro metabolism [4]; [11]): 28%
- IARC classification (humans): Group 2A

SMILES: c1ccc2c(c1)cc1ccc3cccc4ccc2c1c34 [B[a]P, benzo[a]pyrene]
- Km (in vitro [5]): 18 ± 12.9 µM
- KM in male rats exceeded that in female mice (In vitro metabolism [2]; male rat relative to female mouse): 3.6 fold
- B[a]P CLINT exceeded DBC CLINT, margin (in vitro half-life method) ([6]; female, B6129SF1/J, pH 7.4): 10.6 fold
- CLINT for B[a]P exceeded that of DBC, margin (Michaelis-Menten regressions) ([6]; female, B6129SF1/J, pH 7.4): 9.0 fold
- Organism level CLINT, MM [6]: 1445.2 ± 778.0 ml/min/kg body weight
- Organism level CLINT, t 1/2 [6]: 2699.0 ± 1803.4 ml/min/kg body weight
- Tissue level CLINT, t 1/2 [6]: 48.53 ± 32.79 ml/min/g tissue
- B[a]P CLINT exceeded DBC CLINT, margin (in vitro half-life method) ([7]; female, microsomes, pH 7.4): 13.3 fold
- CLINT for B[a]P exceeded that of DBC, margin (Michaelis-Menten regressions) ([7]; female, microsomes, pH 7.4): 3.3 fold
- Km ([7]; female, pH 7.4): 0.725 ± 0.581 µM
- Organism level CLINT, MM ([7]; microsomes): 27.16 ± 29.98 ml/min/kg body weight
- Organism level CLINT, t 1/2 ([7]; microsomes): 54.69 ml/min/kg body weight
- Tissue level CLINT, t 1/2 ([7]; microsomes): 2.13 ml/min/g tissue
- B[a]P CLINT exceeded DBC CLINT, margin (in vitro half-life method) ([8]; male, Sprague-Dawley, pH 7.4): 1.4 fold
- CLINT for B[a]P exceeded that of DBC, margin (Michaelis-Menten regressions) ([8]; male, Sprague-Dawley, pH 7.4): 2.6 fold
- Organism level CLINT, MM [8]: 65.90 ± 71.68 ml/min/kg body weight
- Organism level CLINT, t 1/2 [8]: 51.34 ± 22.19 ml/min/kg body weight
- Tissue level CLINT, t 1/2 [8]: 1.40 ± 0.61 ml/min/g tissue
- Km (in vitro [9]): 0.73 µM
- Km (in vitro [10]): 4.97 ± 1.96 µM
